Patent US5942502A, “Method of treating diseases resulting from calcium metabolism disorders” (priority 1998, dated 1999)
Entries after “also recorded” stand apart in the source; their conditions may differ. Read-outs that look alike come from different tables or passages of the source.

Assays:
[1] = Single-dose clinical study of ST-630: blood biochemistry / serum electrolytes; format: in vivo, human
Text: (2) Blood biochemistry: Total protein fraction, BUN, creatinine, total cholesterol, neutral fat, phospholipid, serum electrolytes (Na, K, Cl, Ca, P, Mg), Al-P, GOT, GPI, LDH, γ-GTP, CPK, blood glucose, HBs antigen/antibody*^1, serologic test for syphilis, activated partial thrombo-plastin time *^2 and prothrombin time *^2
(§1) (1) Serum concentrations: ST-630, Ca, P, Mg and Al-P

[2] = Single-dose clinical study of ST-630: urinary excretions of electrolytes; format: in vivo, human
Text: (3) Urinalysis: pH, occult blood, protein, glucose, bilirubin, urobilinogen, sediment and creatinine clearance (24-hour method)
(2) Urinary excretion ST-630, Ca, P, Mg, Na, K, creatinine, c-AMP*^3 and hydroxyproline*^3

[3] = Study of dietary effect on the absorption of ST-630 (crossover); format: in vivo, human; conditions: 2.0 μg, postprandial (30 min after meal) compared with fasting (FIG. 13)
Experimental: as §1
*: Administration at 30 min after meal.
The dietary effect on the absorption of ST-630 was studied by the crossover method at the dose of 2.0 μg.

[4] = Repeated-dose clinical study of ST-630 (7 days, postprandial); format: in vivo, human; conditions: 1.0 μg/day for 7 days
Experimental: 4.1. Dosing schedule (postprandial administration)
*^1 : Blood samples are collected only immediately before
*^2 : Blood samples are collected only immediately before
*^3 : Only cereatinie are determined immediately before and 12 hr
after administration on day 1, immediately before and 12, 24, 48, 72, 96
and 120 hr after the last administration, and at followup examination. On
days 2-6, blood samples are collected only immediately before
ST-630 was administered postprandially at a daily dose of 1.0 μg for 7 days.

[5] = Subjective and objective symptoms (incl. ESR) in the clinical studies of ST-630; format: in vivo, human
Text: 2) Questioning, auscultation, percussion
5. Subjective and objective symptoms

[6] = test system: Ovariectomized rats; assay: Ovariectomized rat model: serum Ca and P, femur dry weight, ash weight and breaking load; format: in vivo, Female Fisher rats; conditions: for Serum Pi / Breaking load (femur) / Serum Ca / Ash weight (femur) / Dry weight (femur): three times a week for 23 weeks, Mean ± SD; for Serum Pi: OVX 2.6 ± 0.4; for Breaking load (femur): OVX 9.0 ± 0.9; for Serum Ca: OVX 9.7 ± 0.2; for Ash weight (femur): OVX 285 ± 19; for Dry weight (femur): OVX 431 ± 26
Text: Female Fisher rats, 9-10 months old, were ovariectomized and were fed a vitamin D-deficient diet containing 0.45% calcium and 0.3% phosphorus. The rats were given 15IU of vitamin D3 orally once a week throughout this experiment. Four weeks after the surgery, the rats were orally adminstered three times a week for 23 weeks with ST-630 (30, 100 or 300 pmole/kg) or 1α-hydroxyvitamin D3 (100 or 300 pmole/kg).

[7] = Acute toxicity (LD50), single dose; format: in vivo, rat; conditions: rat, in vivo; single (acute) dose, male rats, at 14 days
Text: (§2) LD50 data represent the dose administered resulting in the death of 50% of the test group.

[8] = test system: male rats; assay: Acute toxicity (LD50), single dose; format: in vivo, rat; conditions: rats, from LD50
Text: as §2

[9] = test system: female beagle dogs; assay: Chronic dosing toxicity, three months oral; format: in vivo, dog (beagle)
Experimental: With respect to chronic dosing, a group of six female beagle dogs were given 0.3 mg/kg of either ST-630 or 1α-hydroxyvitamin D3 orally each day for three months.

[10] = Overall safety / tolerance between effectiveness and toxicity in humans; format: in vivo, human
[11] = test system: vitamin D responsive systems of vitamin D-deficient animals; conditions: cited from earlier work; for activity relative to 1,25-(OH)2 D3: vitamin D responsive systems, vitamin D-deficient animals, times that of 1,25-(OH)2 D3
[12] = single dose 0.25, 0.5, 1 and 2 μg/man (FIGS. 1-4)
[13] = single doses 0.0125 μg to 2.0 μg
[14] = 0.0125 μg single dose, subject 1, last value, no date
[15] = 2.0 μg single dose, subject 8, last value, no date
[16] = compared with 1α-hydroxyvitamin D3
[17] = dose response over the doses tested
[18] = vitamin D-like activity compared with 1,25-dihydroxycholecalciferol

Structure (SMILES): C=C1/C(=C\C=C2/CCC[C@]3(C)[C@@H]([C@H](C)CCCC(O)(C(F)(F)F)C(F)(F)F)CC[C@@H]23)C[C@@H](O)C[C@@H]1O [ST-630, 26,26,26,27,27,27-hexafluoro-1α,25-dihydroxycholecalciferol]
- toxicity at higher doses in humans ([1]; 0.5 μg, 1 μg and 2 μg (FIGS. 2-4)): without toxicity problems
- serum Ca change [1, 12]: No major change
- serum Mg change [1, 12]: No major change
- serum P change [1, 12]: No major change
- blood biochemistry change [1, 13]: No change
- serum electrolytes change [1, 13]: No change
- total urinary Ca excretion ([2]; single dose 2.0 μg): increases
- urinary Ca/Cr ratio ([2]; single dose 2.0 μg): increases
- urinary electrolytes ([2]; single doses below 2.0 μg (FIGS. 5-12)): no significant increases
- AUC (area under the serum concentration curve), postprandial versus fasting [3]: slightly higher
- serum Ca concentration change ([4]; postprandial): tended to be elevated slightly but the change was within the normal range
- urinary Ca/Cr ratio ([4]; postprandial): increased with the number of dosings
- recovery of urinary Ca/Cr ratio ([4]; after completion of administration): recovered to the control value immediately after completion of administration
- ESR 1 h ([5]; 0.0125 μg single dose, subject 1, date 2/4 (before: 3)): 3
- ESR 2 h ([5]; 0.0125 μg single dose, subject 1, date 2/4 (before: 7)): 8
- ESR 1 h ([5]; 0.0125 μg single dose, subject 1, date 2/8 (before: 3)): 3
- ESR 2 h ([5]; 0.0125 μg single dose, subject 1, date 2/8 (before: 7)): 8
- ESR 1 h ([5]; 0.0125 μg single dose, subject 1, follow-up examination 2/15 (before: 3)): 13
- ESR 2 h ([5]; 0.0125 μg single dose, subject 1, follow-up examination 2/15 (before: 7)): 34
- ESR 1 h [5, 14]: 1
- ESR 2 h [5, 14]: 8
- ESR 1 h ([5]; 2.0 μg single dose, subject 8, date 8/15 (before: 5)): 4
- ESR 2 h ([5]; 2.0 μg single dose, subject 8, date 8/15 (before: 8)): 8
- ESR 1 h ([5]; 2.0 μg single dose, subject 8, date 8/19 (before: 5)): 4
- ESR 2 h ([5]; 2.0 μg single dose, subject 8, date 8/19 (before: 8)): 11
- ESR 1 h ([5]; 2.0 μg single dose, subject 8, follow-up examination 8/27 (before: 5)): 11
- ESR 2 h ([5]; 2.0 μg single dose, subject 8, follow-up examination 8/27 (before: 8)): 27
- ESR 1 h [5, 15]: 3
- ESR 2 h [5, 15]: 8
- Symptom ([5]; repeated-dose study, 1.0 μg/day, 7 days, subjects 1-8): None and No symptom
- increase in erythrocyte sedimentation rate, number of cases ([5]; single dose 0.0125 μg (Step 1)): one case
- headache (symptom) ([5]; single dose 0.25 μg (Step 5)): Headache; also recorded: one case
- increase in erythrocyte sedimentation rate, number of cases ([5]; single dose 2.0 μg (Step 8)): one case
- Symptom ([5]; study of dietary effect, 2.0 μg, subjects 1-10): None and No symptom
- Serum Pi ([6]; 30 pmole/kg p.o.): 3.6 ± 0.3 mg/100 ml
- Breaking load (femur) ([6]; 30 pmole/kg p.o.): 9.7 ± 0.8 kg
- Serum Ca ([6]; 30 pmole/kg p.o.): 9.9 ± 0.4 mg/100 ml
- Ash weight (femur) ([6]; 30 pmole/kg p.o.): 298 ± 22 mg
- Dry weight (femur) ([6]; 30 pmole/kg p.o.): 449 ± 29 mg
- Serum Pi ([6]; 100 pmole/kg p.o.): 4.8 ± 0.2 mg/100 ml
- Breaking load (femur) ([6]; 100 pmole/kg p.o.): 10.6 ± 0.5 kg
- Serum Ca ([6]; 100 pmole/kg p.o.): 10.6 ± 04 mg/100 ml
- Ash weight (femur) ([6]; 100 pmole/kg p.o.): 319 ± 12 mg
- Dry weight (femur) ([6]; 100 pmole/kg p.o.): 472 ± 21 mg
- Serum Pi ([6]; 300 pmole/kg p.o.): 5.3 ± 0.3 mg/100 ml
- Breaking load (femur) ([6]; 300 pmole/kg p.o.): 12.4 ± 1.3 kg
- Serum Ca ([6]; 300 pmole/kg p.o.): 11.7 ± 0.7 mg/100 ml
- Ash weight (femur) ([6]; 300 pmole/kg p.o.): 362 ± 32 mg
- Dry weight (femur) ([6]; 300 pmole/kg p.o.): 538 ± 47 mg
- prevention of the decrease of ash weight of the femur [6, 16]: more potently
- prevention of the decrease of breaking load of the femur [6, 16]: more potently
- prevention of the decrease of dry weight of the femur [6, 16]: more potently
- increase of mechanical strength of the bone ([6]; compared with 1α-hydroxyvitamin D3 at doses causing the same increase of serum calcium (FIG. 24)): more potently
- serum calcium level [6, 17]: increased dose-dependently
- serum phosphorus level [6, 17]: increased dose-dependently
- LD50 at 336 h [7]: 0.043 mg/kg
- toxicity relative to 1α-hydroxyvitamin D3 [8]: about five times more toxic
- deaths ([9]; 0.3 mg/kg orally each day for three months): all six dogs
- toxicity relative to 1α-hydroxyvitamin D3 ([9]; conclusion for rats and dogs): much more toxic
- calcium absorption [10]: promoted calcium absorption
- hypercalcemia [10]: no hypercalcemia
- safety [10]: no remarkable problem on safety
- "window" or tolerance between effectiveness and toxicity in humans ([10]; up to 2.0 μg): relatively large
- activity relative to 1,25-(OH)2 D3 ([11]; listed as 26,26,26,27,27,27-F6 -1,25-(OH)2 D3): at least ten times greater
- activity relative to 1,25-(OH)2 D3 ([11]; listed as 26,26,26,27,27,27-hexafluoro derivative of 1α,25-dihydroxycholecalciferol): at least ten times greater
- activity relative to 1,25-(OH)2 D3 ([11]; listed as 26,26,26,27,27,27-hexafluoro-1α,25-dihydroxyvitamin D3): about ten times more active
- ability to mobilize calcium from bone [11, 18]: substantially greater
- ability to stimulate calcium transport in the intestine [11, 18]: substantially greater
- anti-rachitic activity according to the rat line test [11, 18]: substantially greater
